# Patent US10376531B2, “Substituted-6,8-dioxabicyclo[3.2.1]octane-2,3-diol compounds as targeting agents of ASGPR” (Pfizer Inc., priority 2014, dated 2019)
# Where “and” joins values, the source holds several entries; their conditions need not be identical. Identical values can stand only once.
# Target: Biotinylated ASGPR (ASGPr H1 wild type) (Homo sapiens (Human), UniProt P07306)
# Assay: Surface plasmon resonance (SPR) binding assay
# Conditions: Biacore 3000, 25° C, immobilized biotinylated ASGPR, each run separately reported or n and standard deviation noted, steady state fit for compounds and single conjugates, kinetic fit for multimeric conjugates
# Procedure: Preparation of Biotinylated ASGPR:
# ASGPr H1 wild type was expressed as an insoluble inclusion body (IB) in E. coli. The cell pellet was re-suspended in TBS buffer pH 8.0 with 0.1 mg/mL lysozyme+25 microg/mL DNase+10 microg/mL RNase+10 mM MgCl2 and stirred on ice until well blended. The mixture was passed through a microfluidizer twice and centrifuged 30 minutes at 30,000×g. The resultant IB pellet was washed with TBS buffer pH 8.0+3M urea and centrifuged and this process was repeated three additional times with water. The IB pellet was
# solubilized in 10 mM Tris+8M urea+100 mM β-mercaptoethanol (pH 8.5), stirred for approximately 20 minutes, then centrifuged to discard any precipitate. For the following manipulations, “buffer T” refers to 20 mM Tris+0.5 M NaCl+25 mM CaCl2. The supernatant was diluted to approximately 0.5 mg/mL in buffer T+2 mM β-mercaptoethanol+8M urea (pH 8.0), then dialysed vs. 8-10× excess volume of buffer T+2 mM β-mercaptoethanol+2 M urea (pH 8.0) overnight at 4° C. Dialysis was repeated in buffer T+1 mM β-mercaptoethanol+1 M urea (pH 8.0) for approximately 24 h at 4° C. with several volume changes with a final dialysis vs. buffer T+5 mM GSH+1 mM GSSG (pH 7.5) with 3 volume changes. The resulting sample was centrifuged and the supernatant was loaded onto an N-acetyl-D-galactosamine agarose packed Pharmacia XK 26 column, equilibrated in buffer T+2 mM TCEP (pH 8.0). The column was washed with this buffer until baseline was re-established. The bound protein was eluted with 20 mM Tris+0.5 M NaCl+2 mM TCEP+2 mM EDTA (pH 8.0). The final yield was approximately 50 mg from 5 L (70 wgm.) E. coli cell pellet. While BSA has one cysteine (Cys34) not engaged in disulfide bonding, this thiol group is often blocked as a mixed disulfide with small thiols such as cysteine, or as the sulfenic acid by aerobic oxidation. […] Mild disulfide reduction conditions were chosen so as not to disrupt buried intra-strand (solvent inaccessible) crosslinks. Thus, immediately prior to biotinylation, the ASGPR sample was first incubated with 1 mM TCEP to ensure that the sample contained a single free thiol. The protein was reacted with a 19-fold molar excess of Pierce Maleimide-PEG2-biotin reagent in PBS overnight at 4° C. Excess biotin was removed from the sample using either PD-10 columns (GE Healthcare) or Zeba Spin Desalting columns (Thermo/Pierce) using manufacturer protocols. LC-MS analysis of the product verified the presence of a single mass with addition of 525 amu consistent with the molecular weight of the maleimide adduct. […] No such outcomes were observed. […] SPR Binding Measurements:
# All SPR measurements with compounds were performed using a Biacore 3000 (GE Healthcare) at 25° C. Biotinylated ASGPR was immobilized typically at 2000-3000 resonance units (Ru) using either SA sensor chips (GE Healthcare) or custom sensor chips with Neutravidin (Pierce Biochemical) immobilized by standard amine coupling to CM5 sensor chips (GE Healthcare). The running buffer was HBS (10 mM HEPES, 150 mM NaCl), 20 mM CaCl2, 0.01% p20, 3% DMSO or 50 mM tris, 150 mM NaCl, 50 mM CaCl2), 0.01% p20, 3% DMSO pH 7.5. Compounds were diluted into running buffer at a concentration of 900 uM and serially diluted 3 fold to 3.7 uM. Compound solutions were injected at 50 ul/min for 1 min followed by a 1 min dissociation in duplicate for each concentration. For the multimeric conjugates (dimers, trimers), the conjugates were diluted in running buffer to concentrations of 100 nM or 10 nM and serially diluted. Conjugates were injected for 2 min and off rates were detected for 300 or 600 sec. After completion of off phase data the compounds were displaced using an injection of 900 uM GalNAc returning the receptor surface to the free state. All data was processed using Scrubber2 (Biologic Software, Inc.) to zero, align, reference and correct for excluded volume effects. […]
# Biotinylated ASGPR (ASGPr H1 wild type), sequence (P07306 161-278): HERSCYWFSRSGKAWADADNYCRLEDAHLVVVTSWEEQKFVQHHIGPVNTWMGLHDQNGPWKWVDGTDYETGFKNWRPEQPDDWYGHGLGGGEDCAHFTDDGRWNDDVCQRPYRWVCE
row,Compound,Kd
1,"[N-]=[N+]=N[C@H]1[C@H]2OC[C@](CO)(O2)[C@H](O)[C@@H]1O [Compound 1, (1S,2R,3R,4R,5S)-4-azido-1-(hydroxymethyl)-6,8-dioxabicyclo[3.2.1]octane-2,3-diol]",9 µM
2,"CC(=O)N[C@H]1[C@H]2OC[C@](CO)(O2)[C@H](O)[C@@H]1O [Compound 3, N-((1S,2R,3R,4R,5S)-2,3-dihydroxy-1-(hydroxymethyl)-6,8-dioxabicyclo[3.2.1]octan-4-yl)acetamide]",7.18 µM
3,"CCOC[C@@]12CO[C@@H](O1)[C@H](NC(C)=O)[C@@H](O)[C@H]2O [Compound 17, N-[(1S,2R,3R,4R,5S)-1-(ethoxymethyl)-2,3-dihydroxy-6,8-dioxabicyclo[3.2.1]oct-4-yl]acetamide]",5.3 µM and 3.4 µM and 2.6 µM
4,"CCCOC[C@@]12CO[C@@H](O1)[C@H](NC(C)=O)[C@@H](O)[C@H]2O [Compound 18, N-[(1S,2R,3R,4R,5S)-2,3-dihydroxy-1-(propoxymethyl)-6,8-dioxabicyclo[3.2.1]oct-4-yl]acetamide]",2.8 µM and 3.8 µM and 3.1 µM and 2.3 µM
5,"CCCCOC[C@@]12CO[C@@H](O1)[C@H](NC(C)=O)[C@@H](O)[C@H]2O [Compound 19, N-[(1S,2R,3R,4R,5S)-1-(butoxymethyl)-2,3-dihydroxy-6,8-dioxabicyclo[3.2.1]oct-4-yl]acetamide]",3.3 µM and 3.2 µM and 7.7 µM
6,"CCCCCOC[C@@]12CO[C@@H](O1)[C@H](NC(C)=O)[C@@H](O)[C@H]2O [Compound 20, N-{(1S,2R,3R,4R,5S)-2,3-dihydroxy-1-[(pentyloxy)methyl]-6,8-dioxabicyclo[3.2.1]oct-4-yl}acetamide]",2.18 µM and 3.8 µM and 4.2 µM
7,"CCCCCCOC[C@@]12CO[C@@H](O1)[C@H](NC(C)=O)[C@@H](O)[C@H]2O [Compound 21, N-{(1S,2R,3R,4R,5S)-1-[(hexyloxy)methyl]-2,3-dihydroxy-6,8-dioxabicyclo[3.2.1]oct-4-yl}acetamide]",3.4 µM and 1.8 µM
8,"COCCOCCOCCOCCOC[C@@]12CO[C@@H](O1)[C@H](NC(C)=O)[C@@H](O)[C@H]2O [Compound 22, N-[(1S,2R,3R,4R,5S)-2,3-dihydroxy-1-(2,5,8,11,14-pentaoxapentadec-1-yl)-6,8-dioxabicyclo[3.2.1]oct-4-yl]acetamide]",5.5 µM and 7.2 µM and 6.7 µM
9,"O=C(N[C@H]1[C@H]2OC[C@](CO)(O2)[C@H](O)[C@@H]1O)C(F)(F)F [Compound 24, N-[(1S,2R,3R,4R,5S)-2,3-dihydroxy-1-(hydroxymethyl)-6,8-dioxabicyclo[3.2.1]oct-4-yl]-2,2,2-trifluoroacetamide]",1.1 µM and 2 µM and 2.3 µM and 1.4 µM (2×) and 700 nM and 800 nM and 1.6 µM
10,"CCC(=O)N[C@H]1[C@H]2OC[C@](CO)(O2)[C@H](O)[C@@H]1O [Compound 25, N-[(1S,2R,3R,4R,5S)-2,3-dihydroxy-1-(hydroxymethyl)-6,8-dioxabicyclo[3.2.1]oct-4-yl]propanamide]",2.2 µM and 3 µM and 2.7 µM and 3.2 µM and 4.3 µM
11,"CS(=O)(=O)N[C@H]1[C@H]2OC[C@](CO)(O2)[C@H](O)[C@@H]1O [Compound 26, N-[(1S,2R,3R,4R,5S)-2,3-dihydroxy-1-(hydroxymethyl)-6,8-dioxabicyclo[3.2.1]oct-4-yl]methanesulfonamide]",60 µM and 96 µM and 140 µM and 110 µM and 149 µM and 117 µM
12,"O=C(N[C@H]1[C@H]2OC[C@](CO)(O2)[C@H](O)[C@@H]1O)C(F)F [Compound 27, N-[(1S,2R,3R,4R,5S)-2,3-dihydroxy-1-(hydroxymethyl)-6,8-dioxabicyclo[3.2.1]oct-4-yl]-2,2-difluoroacetamide]",0.7 µM and 1.9 µM and 1.2 µM and 1 µM and 1.5 µM and 0.5 µM
13,"O=C(CC(F)(F)F)N[C@H]1[C@H]2OC[C@](CO)(O2)[C@H](O)[C@@H]1O [Compound 28, N-[(1S,2R,3R,4R,5S)-2,3-dihydroxy-1-(hydroxymethyl)-6,8-dioxabicyclo[3.2.1]oct-4-yl]-3,3,3-trifluoropropanamide]",1.2 µM and 1.8 µM and 2.1 µM and 1.4 µM and 2.4 µM and 2.9 µM
14,"CC(=O)N(C)[C@H]1[C@H]2OC[C@](CO)(O2)[C@H](O)[C@@H]1O [Compound 29, N-[(1S,2R,3R,4R,5S)-2,3-dihydroxy-1-(hydroxymethyl)-6,8-dioxabicyclo[3.2.1]oct-4-yl]-N-methylacetamide]",6.9 µM and 11.6 µM and 8.8 µM and 15.9 µM and 11.7 µM and 6.4 µM
15,"CN([C@H]1[C@H]2OC[C@](CO)(O2)[C@H](O)[C@@H]1O)S(C)(=O)=O [Compound 30, N-[(1S,2R,3R,4R,5S)-2,3-dihydroxy-1-(hydroxymethyl)-6,8-dioxabicyclo[3.2.1]oct-4-yl]-N-methylmethanesulfonamide]",110 µM and 83 µM and 210 µM and 240 µM and 132 µM and 192 µM
16,"CN(C(=O)OC(C)(C)C)[C@H]1[C@H]2OC[C@](CO)(O2)[C@H](O)[C@@H]1O [Compound 31, tert-butyl [(1S,2R,3R,4R,5S)-2,3-dihydroxy-1-(hydroxymethyl)-6,8-dioxabicyclo[3.2.1]oct-4-yl]methylcarbamate]",14 µM and 10.6 µM and 15.6 µM and 17.3 µM
17,CO[C@H]1OC(CO)(CO)[C@H](O)[C@H](O)[C@H]1NC(C)=O [II-b],199 µM and 240 µM and 260 µM and 300 µM
